Among the data in ChEMBL document CHEMBL1123169, “Structurally specific binding of halogenated biphenyls to thyroxine transport protein” (J Med Chem, 1986) are Binding affinity and Concentration values, retold here.

For assay [1], the target named is Transthyretin (Homo sapiens) (UniProt P02766).
Description: Relative binding affinity to prealbumin was determined from the competition binding assays and is expressed relative to L-T4
Assay [2] has the same target. The assay is described as follows: Concentration at which 50% total binding to prealbumin protein.
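For Binding affinity in this document: competition binding to prealbumin, with affinity given relative to L-T4 as the reference ligand.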

`NC(Cc1cc(I)c(-c2cc(I)c(O)c(I)c2)c(I)c1)C(=O)O` (racemic) showed a Binding affinity in assay [1] of 331. The compound also had a Concentration in assay [2] of 3 nM.

As for `Clc1cc(-c2cc(Cl)c(Cl)c(Cl)c2)cc(Cl)c1Cl`, the Binding affinity in assay [1] turned out to be 313.

For the compound `Oc1c(Cl)cc(-c2ccc(Cl)cc2)cc1Cl`, the Binding affinity in assay [1] stood at 501.

`Clc1cccc(Cl)c1-c1c(Cl)cccc1Cl` registered a Binding affinity in assay [1] below 5.

Take `NC(Cc1cc(I)c(Oc2cc(I)c(O)c(I)c2)c(I)c1)C(=O)O` (configuration not stated): in assay [1], the Binding affinity turned out to be 63.

Turning to `O=C(O)c1cc(I)c(-c2cc(I)c(O)c(I)c2)c(I)c1`, the Binding affinity in assay [1] stood at 1150. In assay [2], the Concentration was determined as 0.87 nM.

On to `Oc1c(Cl)cc(Cl)cc1-c1ccccc1`, for which, in assay [1], the Binding affinity amounted to 28.

As to `Clc1cc(Cl)cc(-c2cc(Cl)cc(Cl)c2)c1`, the Binding affinity in assay [1] is 411.

`c1ccc(-c2ccccc2)cc1` gave a Binding affinity in assay [1] below 5.

As for `N[C@@H](Cc1cc(I)c(Oc2cc(I)c(O)c(I)c2)c(I)c1)C(=O)O`, the Binding affinity in assay [1] amounted to 100.

Regarding `N[C@@H](Cc1cc(I)c(Oc2ccc(O)c(I)c2)c(I)c1)C(=O)O`, the Binding affinity in assay [1] is 2.

`Oc1c(Cl)cc(-c2cc(Cl)c(O)c(Cl)c2)cc1Cl` yielded a Binding affinity in assay [1] of 661. Moreover, the Concentration in assay [2] stood at 1.5 nM.

For `Oc1ccc(-c2c(Cl)cc(Cl)cc2Cl)cc1`, the Binding affinity in assay [1] worked out at 46.

On to `Oc1ccc(-c2c(Cl)c(Cl)c(O)c(Cl)c2Cl)cc1`, for which, in assay [1], the Binding affinity is 398. Also, the Concentration in assay [2] worked out at 2.5 nM.

As for `Oc1c(-c2cc(Cl)c(Cl)c(Cl)c2)cc(Cl)c(Cl)c1Cl`, the Binding affinity in assay [1] was determined as 208.

Take `NC(Cc1ccc(Oc2cc(I)c(O)c(I)c2)c(I)c1)C(=O)O` (configuration not stated): in assay [1], the Binding affinity came out at 23.

In assay [1], `Oc1c(Cl)cc(-c2ccccc2)cc1Cl` registered a Binding affinity of 851.

Regarding `Oc1ccc(-c2cc(Cl)c(Cl)c(Cl)c2Cl)cc1`, the Binding affinity in assay [1] was 286.
